The values below are quoted from earlier work in article PMC2936243 (Journal of neurochemistry, 2010).

Marks after values point to notes of the source that are not given here.

Common to all, as to conditions: cited from earlier work
The subject of data set [1] is α3* and α6* containing nAChR subtypes.
For data set [2], the system named is nAChR subtypes that contain the α1 and α9 subunits.
Data set [3] has as its system GABAARs that contain the β3 subunit.
In data set [4] the test system is unknown site in brain tissue from α7 knockout mice.

As for “monoiodinated α-conotoxin MII [[^125I]-α-CTx MII]”, the “binding selectivity” value in data set [1] was “selectively binds to α3* and α6* containing nAChR subtypes”.
As to α-bungarotoxin [α-BgTx], the “binding to α1 and α9 containing nAChRs” value in data set [2] was “also binds to non-α7 nAChR subtypes including those that contain the α1 and α9 subunits”. The “binding to GABAARs” value in data set [3] is “binds to a subset of GABAARs that contain the β3 subunit”. In data set [4], the “residual binding in α7 knockout brain tissue” value is “significant residual α-BgTx binding to an unknown site”.
